Article PMC9596378, “Discovery and molecular basis of subtype-selective cyclophilin inhibitors” (Nature Chemical Biology, 2022)
Several values for one entry are separate records, joined by “and”; a condition that tells them apart may be missing. Identical values can stand only once. Like-named read-outs stand apart in the source and are kept apart here.

Assays:
PPIL1 = molecular target: T1, PPIL1 (Homo sapiens, UniProt Q9Y3C6); assay: Chymotrypsin coupled prolyl-isomerase assay; type: biochemical; conditions: for PPIL1 prolyl-isomerase assay raw dose-response value: Fig. 3b source data, replicates
T1 construct: PPIL1 (UniProtKB Entry Q9Y3C6: residues 1–166); made in house; host or cells: E. coli BL21(DE3)
T1 sequence (Q9Y3C6 1-166): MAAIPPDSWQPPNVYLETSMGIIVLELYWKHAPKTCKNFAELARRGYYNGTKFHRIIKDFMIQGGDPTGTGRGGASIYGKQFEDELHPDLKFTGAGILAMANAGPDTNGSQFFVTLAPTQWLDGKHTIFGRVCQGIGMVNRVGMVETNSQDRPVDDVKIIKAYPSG

CypB = molecular target: T2, CypB (Homo sapiens, UniProt P23284); assay: biochemical; conditions: for CypB prolyl-isomerase assay raw dose-response value: Fig. 3b source data, replicates
T2 construct: PPIB (UniProtKB Entry P23284: residues 34–216); His6 with TEV site (2BT vector leader) (N); made in house; host or cells: E. coli BL21(DE3)
Method in brief: (§1)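 Chymotrypsin-coupled cis–trans isomerization of Suc-AAPF-AMC (5 µM) catalysed by 5 nM cyclophilin, run cold (2–3 °C) at pH 7.3 with 5 min compound preincubation.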

CypA = molecular target: T3, CypA (Homo sapiens, UniProt P62937); assay: Chymotrypsin coupled prolyl-isomerase assay; type: biochemical; conditions: for CypA prolyl-isomerase assay raw dose-response value: Fig. 3b source data, replicates
T3 construct: PPIA (UniProtKB Entry P62937: residues 1–165); made in house; host or cells: E. coli BL21(DE3)
Method in brief: as §1

CypH = molecular target: T4, CypH (Homo sapiens, UniProt O43447); assay: Chymotrypsin coupled prolyl-isomerase assay; type: biochemical; conditions: for CypH prolyl-isomerase assay raw dose-response value: Fig. 3b source data, replicates
T4 construct: PPIH (UniProtKB Entry O43447: residues 1–177); His6 with TEV site (2BT vector leader) (N); made in house; host or cells: E. coli BL21(DE3)
Method in brief: as §1

CypC = molecular target: T5, CypC (Homo sapiens, UniProt P45877); assay: Chymotrypsin coupled prolyl-isomerase assay; type: biochemical; conditions: for CypC prolyl-isomerase assay raw dose-response value: Fig. 3b source data, replicates
T5 construct: PPIC (UniProtKB Entry P45877: residues 24–212); host or cells: E. coli BL21(DE3)
Method in brief: as §1

CypE = molecular target: T6, CypE (Homo sapiens, UniProt Q9UNP9); assay: Chymotrypsin coupled prolyl-isomerase assay; type: biochemical; conditions: for CypE prolyl-isomerase assay raw dose-response value: Fig. 3b source data, replicates
T6 construct: PPIE (UniProtKB Entry Q9UNP9: residues 131–301); host or cells: E. coli BL21(DE3)
Method in brief: as §1

CypG = molecular target: T7, CypG (Homo sapiens, UniProt Q13427); assay: Chymotrypsin coupled prolyl-isomerase assay; type: biochemical; conditions: for CypG prolyl-isomerase assay raw dose-response value: Fig. 3b source data, replicates
T7 construct: PPIG (UniProtKB Entry Q13427: residues 1–179); His6 with thrombin site (pET28a LIC leader) (N); host or cells: E. coli BL21(DE3)
T7 sequence (Q13427 1-179): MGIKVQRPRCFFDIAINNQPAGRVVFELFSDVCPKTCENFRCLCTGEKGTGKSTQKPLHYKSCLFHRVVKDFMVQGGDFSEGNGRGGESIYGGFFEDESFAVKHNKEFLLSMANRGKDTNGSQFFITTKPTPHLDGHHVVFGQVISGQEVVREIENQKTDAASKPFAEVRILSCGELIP
Method in brief: as §1

T4 sequence (O43447 whole entry, the tested form may be a part): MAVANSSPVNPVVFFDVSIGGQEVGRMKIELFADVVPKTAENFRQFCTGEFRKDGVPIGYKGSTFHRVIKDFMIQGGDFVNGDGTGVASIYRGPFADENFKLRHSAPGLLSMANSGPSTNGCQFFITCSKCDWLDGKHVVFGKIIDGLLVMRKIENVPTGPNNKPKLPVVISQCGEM
T2 sequence (P23284 34-216): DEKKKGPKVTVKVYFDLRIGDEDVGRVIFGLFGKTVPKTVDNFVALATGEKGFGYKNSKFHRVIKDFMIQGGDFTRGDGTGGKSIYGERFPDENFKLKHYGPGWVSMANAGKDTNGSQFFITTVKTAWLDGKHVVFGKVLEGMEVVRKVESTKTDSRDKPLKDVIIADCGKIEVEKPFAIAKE
T6 sequence (Q9UNP9 131-301): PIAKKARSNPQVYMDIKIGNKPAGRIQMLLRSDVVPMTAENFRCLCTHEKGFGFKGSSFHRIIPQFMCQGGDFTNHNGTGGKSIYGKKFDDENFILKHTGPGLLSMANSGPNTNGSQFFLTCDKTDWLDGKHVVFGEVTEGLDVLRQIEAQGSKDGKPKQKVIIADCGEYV
T3 sequence (P62937 whole entry, the tested form may be a part): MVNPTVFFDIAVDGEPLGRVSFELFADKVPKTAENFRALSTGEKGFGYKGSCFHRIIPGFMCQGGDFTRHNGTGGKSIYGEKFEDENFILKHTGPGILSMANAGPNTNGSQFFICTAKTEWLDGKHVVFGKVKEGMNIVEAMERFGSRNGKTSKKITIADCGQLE
T5 sequence (P45877 24-212): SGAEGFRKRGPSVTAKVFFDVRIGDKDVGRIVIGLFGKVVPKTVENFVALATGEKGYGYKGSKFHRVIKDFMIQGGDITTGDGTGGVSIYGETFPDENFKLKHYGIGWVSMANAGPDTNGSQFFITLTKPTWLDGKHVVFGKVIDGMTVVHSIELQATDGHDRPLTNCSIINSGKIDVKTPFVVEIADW

With `NCCOCCNC(=O)[C@@H]1CCNC(=O)/C=C/C(=O)N2CCC[C@](Cc3ccccc3)(C2)C(=O)N[C@@H](Cc2ccc(-c3ccc(CCC(=O)O)cc3)cc2)C(=O)NCc2ccccc2CC(=O)N1` [Compound B23] the “PPIL1 prolyl-isomerase assay raw dose-response value” (PPIL1; Dose 0.0201875 µM) was 0.07231 and 0.05967 and 0.06308, the “PPIL1 prolyl-isomerase assay raw dose-response value” (PPIL1; Dose 0.0605624 µM) was 0.05364 and 0.0572 and 0.05937 and the “PPIL1 prolyl-isomerase assay raw dose-response value” (PPIL1; Dose 0.181687 µM) was 0.04207 and 0.04374 and 0.05902. The “PPIL1 prolyl-isomerase assay raw dose-response value” (PPIL1; Dose 0.545062 µM) was 0.02667 and 0.03161 and 0.02807, the “PPIL1 prolyl-isomerase assay raw dose-response value” (PPIL1; Dose 1.63519 µM) was 0.01818 and 0.02247 and 0.01913 and the “PPIL1 prolyl-isomerase assay raw dose-response value” (PPIL1; Dose 4.90556 µM) was 0.01354 and 0.01399 and 0.01299. For the same molecule, the “PPIL1 prolyl-isomerase assay raw dose-response value” (PPIL1; Dose 14.7167 µM) was 0.01244 and 0.01258 and 0.01177, the “PPIL1 prolyl-isomerase assay raw dose-response value” (PPIL1; Dose 44.15 µM) was 0.01521 and 0.01086 and 0.01169 and the IC50 (PPIL1; wild-type PPIL1, read-out: Wild-Type Cyclophilin Prolyl Isomerase Inhibition IC50 Values, PPIL1) was 130 nM. The IC50 (CypB; CypB (comparator for CypB E121S), read-out: Mutant Cyclophilin Prolyl Isomerase Inhibition IC50 Values, CypB) was 22 nM, the “CypB prolyl-isomerase assay raw dose-response value” (CypB; Dose 0.00457247 µM) was 0.0629 and 0.06607 and 0.09046 and the “CypB prolyl-isomerase assay raw dose-response value” (CypB; Dose 0.0137174 µM) was 0.04838 and 0.05763 and 0.06969. The “CypB prolyl-isomerase assay raw dose-response value” (CypB; Dose 0.0411523 µM) was 0.04508 and 0.04072 and 0.05012, the “CypB prolyl-isomerase assay raw dose-response value” (CypB; Dose 0.123457 µM) was 0.03305 and 0.03113 and 0.02819 and the “CypB prolyl-isomerase assay raw dose-response value” (CypB; Dose 0.37037 µM) was 0.02119 and 0.01977 and 0.01945. The “CypB prolyl-isomerase assay raw dose-response value” (CypB; Dose 1.11111 µM) was 0.01691 and 0.01533 and 0.01651, the “CypB prolyl-isomerase assay raw dose-response value” (CypB; Dose 3.33333 µM) was 0.01532 and 0.01471 and 0.0137 and the “CypB prolyl-isomerase assay raw dose-response value” (CypB; Dose 10 µM) was 0.01585 and 0.0132 and 0.01359. The IC50 (CypB; prolyl-isomerase inhibition, 5 nM cyclophilin, read-out: IC50 CypB) was 22 ± 4 nM, the IC50 (CypB; prolyl-isomerase inhibition, read-out: IC50 CypB) was 22 nM and the IC50 (CypB; wild-type CypB, read-out: Wild-Type Cyclophilin Prolyl Isomerase Inhibition IC50 Values, CypB) was 22 nM. For the same molecule, the IC50 (CypA; CypA column within the mutant section (comparator for CypA E81S/K82R), read-out: Mutant Cyclophilin Prolyl Isomerase Inhibition IC50 Values, CypA) was 80 nM, the “CypA prolyl-isomerase assay raw dose-response value” (CypA; Dose 0.0201875 µM) was 0.09097 and 0.1013 and 0.1158 and the “CypA prolyl-isomerase assay raw dose-response value” (CypA; Dose 0.0605624 µM) was 0.07524 and 0.06823 and 0.07786. The “CypA prolyl-isomerase assay raw dose-response value” (CypA; Dose 0.181687 µM) was 0.04845 and 0.04593 and 0.054, the “CypA prolyl-isomerase assay raw dose-response value” (CypA; Dose 0.545062 µM) was 0.03092 and 0.02915 and 0.02773 and the “CypA prolyl-isomerase assay raw dose-response value” (CypA; Dose 1.63519 µM) was 0.0188 and 0.01847 and 0.01826. The “CypA prolyl-isomerase assay raw dose-response value” (CypA; Dose 4.90556 µM) was 0.01632 and 0.01475 and 0.01432, the “CypA prolyl-isomerase assay raw dose-response value” (CypA; Dose 14.7167 µM) was 0.01473 and 0.01273 and 0.01279 and the “CypA prolyl-isomerase assay raw dose-response value” (CypA; Dose 44.15 µM) was 0.01511 and 0.01244 and 0.01258. It also gave an IC50 (CypA; prolyl-isomerase inhibition, 5 nM cyclophilin, read-out: IC50 CypA) of 80 ± 10 nM, an IC50 (CypA; prolyl-isomerase inhibition, read-out: IC50 CypA) of 80 nM and an IC50 (CypA; wild-type CypA, read-out: Wild-Type Cyclophilin Prolyl Isomerase Inhibition IC50 Values, CypA) of 80 nM. The “CypH prolyl-isomerase assay raw dose-response value” (CypH; Dose 0.0201875 µM) was 0.05491 and 0.05835 and 0.05541, the “CypH prolyl-isomerase assay raw dose-response value” (CypH; Dose 0.0605624 µM) was 0.04538 and 0.05559 and 0.06086 and the “CypH prolyl-isomerase assay raw dose-response value” (CypH; Dose 0.181687 µM) was 0.05774 and 0.04961 and 0.05822. For the same molecule, the “CypH prolyl-isomerase assay raw dose-response value” (CypH; Dose 0.545062 µM) was 0.05324 and 0.05013 and 0.05095, the “CypH prolyl-isomerase assay raw dose-response value” (CypH; Dose 1.63519 µM) was 0.05541 and 0.05439 and 0.06013 and the “CypH prolyl-isomerase assay raw dose-response value” (CypH; Dose 4.90556 µM) was 0.05126 and 0.04228 and 0.05669. For the same molecule, the “CypH prolyl-isomerase assay raw dose-response value” (CypH; Dose 14.7167 µM) was 0.04371 and 0.04194 and 0.04598, the “CypH prolyl-isomerase assay raw dose-response value” (CypH; Dose 44.15 µM) was 0.03624 and 0.03187 and 0.03195 and the IC50 (CypH; prolyl-isomerase inhibition, 5 nM cyclophilin, read-out: IC50 CypH) was about 30 µM. For the same molecule, the IC50 (CypH; wild-type CypH, read-out: Wild-Type Cyclophilin Prolyl Isomerase Inhibition IC50 Values, CypH) was 30 µM, the “CypC prolyl-isomerase assay raw dose-response value” (CypC; Dose 0.0201875 µM) was 0.0364 and 0.03611 and 0.04566 and the “CypC prolyl-isomerase assay raw dose-response value” (CypC; Dose 0.0605624 µM) was 0.03688 and 0.04021 and 0.04113. For the same molecule, the “CypC prolyl-isomerase assay raw dose-response value” (CypC; Dose 0.181687 µM) was 0.04275 and 0.03781 and 0.03638, the “CypC prolyl-isomerase assay raw dose-response value” (CypC; Dose 0.545062 µM) was 0.03775 and 0.04123 and 0.03915 and the “CypC prolyl-isomerase assay raw dose-response value” (CypC; Dose 1.63519 µM) was 0.0345 and 0.03482 and 0.03957. The “CypC prolyl-isomerase assay raw dose-response value” (CypC; Dose 4.90556 µM) was 0.0293 and 0.02714 and 0.0334, the “CypC prolyl-isomerase assay raw dose-response value” (CypC; Dose 14.7167 µM) was 0.02525 and 0.02065 and 0.02297 and the “CypC prolyl-isomerase assay raw dose-response value” (CypC; Dose 44.15 µM) was 0.02045 and 0.01408 and 0.0166. For the same molecule, the IC50 (CypC; wild-type CypC, read-out: Wild-Type Cyclophilin Prolyl Isomerase Inhibition IC50 Values, CypC) was 5 µM, the “CypE prolyl-isomerase assay raw dose-response value” (CypE; Dose 0.00457247 µM) was 0.1029 and 0.09388 and 0.1478 and the “CypE prolyl-isomerase assay raw dose-response value” (CypE; Dose 0.0137174 µM) was 0.07275 and 0.07554 and 0.1142. The “CypE prolyl-isomerase assay raw dose-response value” (CypE; Dose 0.0411523 µM) was 0.04814 and 0.04078 and 0.05584, the “CypE prolyl-isomerase assay raw dose-response value” (CypE; Dose 0.123457 µM) was 0.02663 and 0.02961 and 0.04183 and the “CypE prolyl-isomerase assay raw dose-response value” (CypE; Dose 0.37037 µM) was 0.01687 and 0.01785 and 0.01578. For the same molecule, the “CypE prolyl-isomerase assay raw dose-response value” (CypE; Dose 1.11111 µM) was 0.01294 and 0.01514 and 0.0179, the “CypE prolyl-isomerase assay raw dose-response value” (CypE; Dose 3.33333 µM) was 0.01306 and 0.01252 and 0.01422 and the “CypE prolyl-isomerase assay raw dose-response value” (CypE; Dose 10 µM) was 0.01752 and 0.01195 and 0.01258. The IC50 (CypE; wild-type CypE, read-out: Wild-Type Cyclophilin Prolyl Isomerase Inhibition IC50 Values, CypE) was 19 nM, the “CypG prolyl-isomerase assay raw dose-response value” (CypG; Dose 0.0201875 µM) was 0.05557 and 0.07057 and 0.08284 and the “CypG prolyl-isomerase assay raw dose-response value” (CypG; Dose 0.0605624 µM) was 0.06342 and 0.06664 and 0.0785. The “CypG prolyl-isomerase assay raw dose-response value” (CypG; Dose 0.181687 µM) was 0.06147 and 0.06545 and 0.06938, the “CypG prolyl-isomerase assay raw dose-response value” (CypG; Dose 0.545062 µM) was 0.06208 and 0.06061 and 0.06273 and the “CypG prolyl-isomerase assay raw dose-response value” (CypG; Dose 1.63519 µM) was 0.04663 and 0.04276 and 0.05928. For the same molecule, the “CypG prolyl-isomerase assay raw dose-response value” (CypG; Dose 4.90556 µM) was 0.04439 and 0.04343 and 0.05116, the “CypG prolyl-isomerase assay raw dose-response value” (CypG; Dose 14.7167 µM) was 0.03836 and 0.03799 and 0.04109 and the “CypG prolyl-isomerase assay raw dose-response value” (CypG; Dose 44.15 µM) was 0.02708 and 0.02241 and 0.02205. It also gave an IC50 (CypG; wild-type CypG, read-out: Wild-Type Cyclophilin Prolyl Isomerase Inhibition IC50 Values, CypG) of 5 µM.
